Key:
HIV-1 RT enzyme = HIV-1 RT enzyme (Human immunodeficiency virus type 1 group M subtype B, UniProt P04585); experiment: Assay for inhibition of HIV reverse transcriptase (RNA-dependent DNA polymerase, SPA); format: biochemical; conditions: HIV-1 RT enzyme 1 nM, 1 hour at 37° C.
Description: (§1) 100 μL reaction mixtures were initiated with a combination of primer-template substrate (10 nM final concentration) and dNTPs (0.6 μM dNTPs, 0.75 μM [^3H]-dGTP). The heterodimeric nucleic acid substrate was generated by annealing the DNA primer pD500 (described in Shaw-Reid et al., J. Biol. Chem., 278: 2777-2780; obtained from Integrated DNA Technologies) to t500, a 500 nucleotide RNA template created by in vitro transcription (see Shaw-Reid et al., J. Biol. Chem., 278: 2777-2780). After 1 hour incubation at 37° C., reactions were quenched by 10 μL streptavidin scintillation proximity assay beads (10 mg/mL, from Amersham Biosciences) in 0.5 M EDTA, pH 8. Microtiter plates were incubated an additional 10 minutes at 37° C. prior to quantification via Topcount (Packard).

[1] = target: T1, mutant HIV reverse transcriptase, K103N mutation (Human immunodeficiency virus type 1 group M subtype B, UniProt P04585, K690N); experiment: Analogous RT inhibition assay, K103N mutant; format: biochemical
T1 construct: made in house
Description: as §1
(§2) Analogous assays were conducted substituting mutant HIV strains to determine the […] inhibition of compounds of the present invention against mutant HIV reverse transcriptase. In one strain the reverse transcriptase has the Y181C mutation and in the other strain the reverse transcriptase has the K103N mutation. The mutations were generated with the […] site-directed mutagenesis kit (Stratagene).

[2] = target: T2, mutant HIV reverse transcriptase, Y181C mutation (Human immunodeficiency virus type 1 group M subtype B, UniProt P04585, Y768C); experiment: Analogous RT inhibition assay, Y181C mutant; format: biochemical; conditions: Y181C mutant RT; tested up to 20 micromolar; read-out: IC50, Y181C mutant assay
T2 construct: made in house
Description: as §1, §2

[3] = system: acute HIV infection of T-lymphoid cells; experiment: Assay for inhibition of HIV replication (spread assay); format: cell-based; conditions: Human immunodeficiency virus 1; inhibition of HIV replication in T-lymphoid cells
Description: An assay for the inhibition of acute HIV infection of T-lymphoid cells (alternatively referred to herein as the “spread assay”) was conducted in accordance with Vacca, J. P. et al., Proc. Natl. Acad. Sci. USA 1994, 91: 4096. […] The compounds of Examples 2-4 and 22 were not tested.

`O=S(=O)(c1ccccc1)c1c(-c2ncc(-c3ccncc3)s2)[nH]c2ccc(Cl)cc12` [Example 2, 5-chloro-3-(phenylsulfonyl)-2-(5-pyridin-4-yl-1,3-thiazol-2-yl)-1H-indole] showed an IC50 (HIV-1 RT enzyme) of 4000 nM.
`Cc1cnc(-c2[nH]c3ccc(Cl)cc3c2S(=O)(=O)CC2CCC2)[nH]1` [Example 34, 5-Chloro-3-[(cyclobutylmethyl)sulfonyl]-2-(5-methyl-1H-imidazol-2-yl)-1H-indole] was tested, and the IC50 [1] was greater than 3000 nM, the IC50 [2] was less than 1000 nM and the IC95 [3] was less than 1000 nM.
`Cc1cnc(-c2[nH]c3ccc(Cl)cc3c2S(=O)(=O)C2CCCC2)[nH]1` [Example 35, 5-chloro-3-[(cyclopentyl)sulfonyl]-2-(5-methyl-1H-imidazol-2-yl)-1H-indole] showed an IC50 [1] of less than 1000 nM, an IC50 [2] of less than 1000 nM and an IC95 [3] of less than 1000 nM.
Molecule `CCC(CC)S(=O)(=O)c1c(-c2ncc(C)[nH]2)[nH]c2ccc(Cl)cc12` [Example 37, 5-chloro-3-[(pent-3-yl)sulfonyl]-2-(5-methyl-1H-imidazol-2-yl)-1H-indole] has an IC50 [1] greater than 10000 nM, an IC50 [2] of less than 1000 nM and an IC95 [3] of less than 1000 nM.

— patent US20100168097A1, “Non-Nucleoside Reverse Transcriptase Inhibitors” (priority 2005, published 2010)
